Results published in patent publication US9119777B2 (MICRODOSE THERAPEUTX, INC., priority 2008, dated 2015).
Where two headings read alike, the source gives them in different places.

Columns and labels:
[1] = cited from earlier work
[2] = tested on: methacholine induced bronchoconstriction; assay: Methacholine induced bronchoconstriction after pulmonary (i.t.) dry powder delivery; type: in vivo, guinea pig
From the text: Each bar represents the mean value and the vertical lines show s.e. mean.
(§1) Each point represents the mean value and the vertical bars show s.e. mean.

[3] = cited from earlier work; remark: listed apart in the source
[4] = tested on: mean arterial blood pressure and heart rate; assay: Mean arterial blood pressure and heart rate after pulmonary delivery; type: in vivo, guinea pig
From the text: as §1

[5] = tested on: receptors in the salivary glands; conditions: cited from earlier work
[6] = Pharmacokinetic profile following dry powder insufflation; type: in vivo, guinea pig; conditions: anaesthetized guinea pigs, dry powder insufflation of oxybutynin
[7] = in vivo; cited from earlier work

CCN(CC)CC#CCOC(=O)C(O)(c1ccccc1)C1CCCCC1 (racemic) [oxybutynin, 4-diethylaminobut-2-butynyl phenylcyclohexyl-glycolate]
Oral half life ([1]; oral): 2.5 h
Bronchoprotective effect in guinea pig model of bronchoconstriction [2]: significantly bronchoprotective effect from 0.25 to 24 hours
pKa [3]: 8.24
Effect on arterial pressure and heart rate ([4]; guinea pig model of bronchoconstriction): without a prolonged significant effect on arterial pressure and heart rate
Influence on cardiovascular conditions, compared with Tiotropium ([4]; oxybutynin xinafoate, pulmonary, first 6 hours, anaesthetized guinea pigs): did not have as significant an influence on cardiovascular conditions

CCNCC#CCOC(=O)C(O)(c1ccccc1)C1CCCCC1 (centres unmarked) [DEO, N-desethyloxybutynin]
Levels of DEO ([1]; oral therapy): 10 to 40 ng/mL
DEO circulating concentration relative to parent compound ([1]; oxybutynin ER, oral): approximately 4 times
DEO circulating concentration relative to parent compound ([1]; oxybutynin IR, oral): approximately 10 times
Levels of DEO ([1]; transdermal therapy): ~3 ng/mL
Affinity and binding duration at receptors in the salivary glands, compared with oxybutynin [5]: greater affinity and binding duration
Systemic levels of DEO resulting from pulmonary delivery [6]: below the LOQ of the detection method

CCC(=O)O[C@]1(C(=O)SCF)[C@H](C)C[C@H]2[C@@H]3C[C@H](F)C4=CC(=O)C=C[C@]4(C)[C@@]3(F)[C@@H](O)C[C@@]21C [fluticasone propionate]
Mean absorption time in the lungs [7]: 5 to 7 h

CC1(C)O[C@@H]2C[C@H]3[C@@H]4CCC5=CC(=O)C=C[C@]5(C)[C@@]4(F)[C@@H](O)C[C@]3(C)[C@]2(C(=O)CO)O1 [triamcinolone acetonide]
Mean absorption time in the lungs [7]: 2.9 h

O=C(O)c1ccc2ccccc2c1O [xinafoic acid]
pKa [3]: 2.7
